Strand notation (5' to 3'): a small letter for the sugar, then the base; units joined by * are phosphorothioate-linked, units joined directly phosphodiester-linked; [ ] holds rarer units or linkages, { } end groups; capitals alone tell only the bases. e = 2'-O-(2-methoxyethyl) (MOE); [5mC] = 5-methylcytosine; d = 2'-deoxy (DNA)
What was measured:
[1] = test system: human PKK mRNA; assay: Antisense inhibition of human PKK mRNA in HepaRG cells, 5,000 nM (Example 2); assay type: cell-based
Summary of the method: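 qRT-PCR (RTS3454) read-out, RIBOGREEN-normalized; % inhibition vs untreated cells. HepaRG, 20,000 cells/well, electroporation, 5,000 nM ASO, ~24 h.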

[2] = test system: human PKK mRNA; assay: Dose-dependent antisense inhibition of human PKK in HepaRG cells, 0.19-5.00 uM (Example 5); assay type: cell-based
Description: Cells were plated at a density of 20,000 cells per well and transfected using electroporation with 0.19 μM, 0.56 μM, 1.67 μM, and 5.00 μM concentrations of antisense oligonucleotide. After a treatment period of approximately 16 hours, RNA was isolated from the cells and PKK mRNA levels were measured by quantitative real-time PCR. Human PKK primer probe set RTS3454 was used to measure mRNA levels. PKK mRNA levels were adjusted according to total RNA content, as measured by RIBOGREEN®. The antisense oligonucleotides were tested in a series of experiments that had similar culture conditions.
The half maximal inhibitory concentration (IC50) of each oligonucleotide is also presented.

[3] = HepaRG cells, electroporation, approximately 16 hours, Table 37
[4] = 4 point dose response, HepaRG cells, Table 37
[5] = human PKK mRNA, HepaRG cells, 5-10-5 motif oligonucleotides targeting SEQ ID NO: 1 and 10
[6] = human PKK mRNA in HepaRG cells, 5-10-5 gapmers, Table 14
[7] = human PKK mRNA, HepaRG cells, 5,000 nM antisense oligonucleotide, Table 18
[8] = Table 9 experiment, HepaRG cells, 20,000 cells per well, electroporation with 5,000 nM antisense oligonucleotide, approx. 24 hours, PKK mRNA by RT-PCR (RTS3454), relative to untreated control cells
[9] = Table 10 experiment, HepaRG cells, 20,000 cells per well, electroporation with 5,000 nM antisense oligonucleotide, approx. 24 hours, PKK mRNA by RT-PCR (RTS3454), relative to untreated control cells
[10] = HepaRG cells, electroporation, approximately 16 hours, Table 36
[11] = 4 point dose response, HepaRG cells, Table 36
[12] = HepaRG cells, electroporation, approximately 16 hours, Table 38
[13] = 4 point dose response, HepaRG cells, Table 38
[14] = HepaRG cells, electroporation, approximately 16 hours, Table 35
[15] = HepaRG cells, electroporation, approximately 16 hours, Table 40
[16] = 4 point dose response, HepaRG cells, Table 40
[17] = Table 13, human PKK mRNA in HepaRG cells, 5-10-5 gapmers
[18] = HepaRG cells, electroporation, approximately 16 hours, Table 41
[19] = 4 point dose response, HepaRG cells, Table 41
[20] = Table 34, HepaRG, electroporation, ~16 h
[21] = Table 8, HepaRG cells, electroporation with 5,000 nM antisense oligonucleotide, approx. 24 hours, PKK mRNA by RT-PCR (RTS3454), relative to untreated control cells

547731 (eG*eG*eA*eT*eT*dG*dG*dT*dG*dG*dT*dG*dG*dG*dA*eT*eT*eG*eG*eT; antisense) [compound 547731]
% inhibition ([1]; HepaRG cells, 5,000 nM antisense oligonucleotide, 5-10-5 gapmers, Table 17): 49% | percent inhibition of PKK at 0.19 μM [2, 3]: 0% | percent inhibition of PKK at 0.56 μM [2, 3]: 0% | percent inhibition of PKK at 1.67 μM [2, 3]: 17% | percent inhibition of PKK at 5.00 μM [2, 3]: 56% | IC50 [2, 4]: 5000 nM

547637 (eA*eG*eT*eA*eT*d[5mC]*dA*d[5mC]*dT*dG*dT*dA*d[5mC]*dT*dA*eG*eT*eT*eT*eT; antisense) [compound 547637]
% inhibition [1, 5]: 88% | percent inhibition of PKK at 0.19 μM [2, 3]: 10% | percent inhibition of PKK at 0.56 μM [2, 3]: 21% | percent inhibition of PKK at 1.67 μM [2, 3]: 36% | percent inhibition of PKK at 5.00 μM [2, 3]: 82% | IC50 [2, 4]: 1800 nM

547618 (antisense eA*e[5mC]*eT*eG*eT*d[5mC]*d[5mC]*dT*dA*dT*dA*dT*d[5mC]*dA*d[5mC]*eT*eG*eT*eA*e[5mC]) [compound 547618]
% inhibition [1, 6]: 87% | percent inhibition of PKK at 0.19 μM [2, 3]: 0% | percent inhibition of PKK at 0.56 μM [2, 3]: 0% | percent inhibition of PKK at 1.67 μM [2, 3]: 73% | percent inhibition of PKK at 5.00 μM [2, 3]: 98% | IC50 [2, 4]: 1300 nM

548752 (antisense e[5mC]*eA*e[5mC]*eT*dG*dT*dA*d[5mC]*dT*dA*dG*dT*dT*dT*e[5mC]*e[5mC]*eT*eA) [compound 548752]
% inhibition [1, 7]: 89% | percent inhibition of PKK at 0.19 μM [2, 3]: 0% | percent inhibition of PKK at 0.56 μM [2, 3]: 0% | percent inhibition of PKK at 1.67 μM [2, 3]: 51% | percent inhibition of PKK at 5.00 μM [2, 3]: 90% | IC50 [2, 4]: 1900 nM

547454 (antisense eT*eA*eT*e[5mC]*eA*dT*dG*dA*dT*dT*d[5mC]*d[5mC]*d[5mC]*dT*dT*e[5mC]*eT*eG*eA*eG) [compound 547454]
% inhibition [1, 8]: 92% | % inhibition [1, 9]: 78% | percent inhibition of PKK at 0.19 μM [2, 10]: 19% | percent inhibition of PKK at 0.56 μM [2, 10]: 40% | percent inhibition of PKK at 1.67 μM [2, 10]: 58% | percent inhibition of PKK at 5.00 μM [2, 10]: 92% | IC50 [2, 11]: 900 nM

546412 (eG*eG*e[5mC]*eT*eT*d[5mC]*dA*dA*dT*dA*dT*dT*dG*dA*d[5mC]*eT*eT*eT*eG*eG; antisense) [compound 546412]
% inhibition ([1]; HepaRG cells, electroporation, 5,000 nM antisense oligonucleotide, approx. 24 hours, primer probe set RTS3454, relative to untreated control cells, Table 12): 84% | percent inhibition of PKK at 0.19 μM [2, 12]: 0% | percent inhibition of PKK at 0.56 μM [2, 12]: 1% | percent inhibition of PKK at 1.67 μM [2, 12]: 61% | percent inhibition of PKK at 5.00 μM [2, 12]: 62% | IC50 [2, 13]: 2300 nM

546852 (e[5mC]*eA*eG*eT*eA*dT*d[5mC]*dA*d[5mC]*dT*dG*dT*d[5mC]*d[5mC]*dT*eA*eT*eA*eT*e[5mC]; antisense) [compound 546852]
% inhibition [1, 6]: 94% | percent inhibition of PKK at 0.19 μM [2, 14]: 19% | percent inhibition of PKK at 0.56 μM [2, 14]: 40% | percent inhibition of PKK at 1.67 μM [2, 14]: 78% | percent inhibition of PKK at 5.00 μM [2, 14]: 85% | IC50 ([2]; 4 point dose response, HepaRG cells, Table 35): 800 nM

548756 (antisense eG*eT*eA*eT*d[5mC]*dA*d[5mC]*dT*dG*dT*dA*d[5mC]*dT*eA*eG*eT*eT) [compound 548756]
% inhibition [1, 7]: 81% | percent inhibition of PKK at 0.19 μM [2, 15]: 0% | percent inhibition of PKK at 0.56 μM [2, 15]: 4% | percent inhibition of PKK at 1.67 μM [2, 15]: 16% | percent inhibition of PKK at 5.00 μM [2, 15]: 86% | IC50 [2, 16]: > 5000 nM

547575 (eG*eG*eG*eA*eA*dA*d[5mC]*dT*d[5mC]*dT*dT*dT*d[5mC]*d[5mC]*dT*e[5mC]*eG*e[5mC]*e[5mC]*e[5mC]; antisense) [compound 547575]
% inhibition [1, 17]: 89% | percent inhibition of PKK at 0.19 μM [2, 3]: 0% | percent inhibition of PKK at 0.56 μM [2, 3]: 34% | percent inhibition of PKK at 1.67 μM [2, 3]: 82% | percent inhibition of PKK at 5.00 μM [2, 3]: 93% | IC50 [2, 4]: 1100 nM

546846 (e[5mC]*eT*eG*eT*e[5mC]*d[5mC]*dT*dA*dT*dA*dT*d[5mC]*dA*d[5mC]*dT*eG*eT*e[5mC]*e[5mC]*eT; antisense) [compound 546846]
% inhibition [1, 17]: 95% | percent inhibition of PKK at 0.19 0μM [2, 18]: 26% | percent inhibition of PKK at 0.56 0μM [2, 18]: 49% | percent inhibition of PKK at 1.67 1μM [2, 18]: 85% | IC50 [2, 19]: 500 nM | percent inhibition of PKK at 0.19 μM [2, 20]: 36% | percent inhibition of PKK at 0.56 μM [2, 20]: 45% | percent inhibition of PKK at 1.67 μM [2, 20]: 71% | percent inhibition of PKK at 5.00 μM [2, 20]: 82% | IC50 ([2]; Table 34, PKK mRNA, HepaRG, electroporation, ~16 h): 500 nM

546268 (e[5mC]*eT*eT*e[5mC]*e[5mC]*dT*dT*dA*d[5mC]*dA*dG*dT*d[5mC]*dT*dT*e[5mC]*eT*eG*eG*eG; antisense) [compound 546268]
% inhibition [1, 21]: 93% | percent inhibition of PKK at 0.19 μM [2, 14]: 56% | percent inhibition of PKK at 0.56 μM [2, 14]: 50% | percent inhibition of PKK at 1.67 μM [2, 14]: 82% | percent inhibition of PKK at 5.00 μM [2, 14]: 93% | percent inhibition of PKK at 5.00 μM [2, 18]: 92% | percent inhibition of PKK at 0.19 0μM [2, 18]: 0% | percent inhibition of PKK at 0.56 0μM [2, 18]: 71% | percent inhibition of PKK at 1.67 1μM [2, 18]: 92% | IC50 [2, 19]: 500 nM

547483 (antisense eT*e[5mC]*e[5mC]*e[5mC]*e[5mC]*d[5mC]*dT*dT*d[5mC]*dT*dT*dT*dA*dT*dA*eG*e[5mC]*e[5mC]*eA*eG) [compound 547483]
% inhibition [1, 8]: 71% | % inhibition [1, 9]: 77% | percent inhibition of PKK at 0.19 μM [2, 3]: 0% | percent inhibition of PKK at 0.56 μM [2, 3]: 9% | percent inhibition of PKK at 1.67 μM [2, 3]: 49% | percent inhibition of PKK at 5.00 μM [2, 3]: 71% | IC50 [2, 4]: 2100 nM

547426 (eG*eA*eG*eT*eA*dA*d[5mC]*d[5mC]*dA*dG*dA*dG*d[5mC]*dT*d[5mC]*e[5mC]*e[5mC]*eT*eT*eG; antisense) [compound 547426]
% inhibition [1, 21]: 92% | percent inhibition of PKK at 0.19 μM [2, 10]: 19% | percent inhibition of PKK at 0.56 μM [2, 10]: 50% | percent inhibition of PKK at 1.67 μM [2, 10]: 84% | percent inhibition of PKK at 5.00 μM [2, 10]: 93% | IC50 [2, 11]: 600 nM | percent inhibition of PKK mRNA, 0.19 μM ([2]; HepaRG cells, 0.19 μM antisense oligonucleotide): 18% | percent inhibition of PKK mRNA, 0.56 μM ([2]; HepaRG cells, 0.56 μM antisense oligonucleotide): 35% | percent inhibition of PKK mRNA, 1.67 μM ([2]; HepaRG cells, 1.67 μM antisense oligonucleotide): 80% | percent inhibition of PKK mRNA, 5.00 μM ([2]; HepaRG cells, 5.00 μM antisense oligonucleotide): 95% | IC50 ([2]; HepaRG cells, 0.19-5.00 μM): 700 nM

547636 (eG*eT*eA*eT*e[5mC]*dA*d[5mC]*dT*dG*dT*dA*d[5mC]*dT*dA*dG*eT*eT*eT*eT*e[5mC]; antisense) [compound 547636]
% inhibition [1, 5]: 86% | percent inhibition of PKK at 0.19 μM [2, 12]: 0% | percent inhibition of PKK at 0.56 μM [2, 12]: 24% | percent inhibition of PKK at 1.67 μM [2, 12]: 79% | percent inhibition of PKK at 5.00 μM [2, 12]: 94% | IC50 [2, 13]: 1100 nM

547374 (eG*eA*eT*eA*eG*dG*dT*dG*d[5mC]*dA*dG*dA*dT*dG*dG*eT*e[5mC]*e[5mC]*eG*eA; antisense) [compound 547374]
% inhibition ([1]; Table 7, HepaRG cells, electroporation with 5,000 nM antisense oligonucleotide, approx. 24 hours, PKK mRNA by RT-PCR (RTS3454), relative to untreated control cells): 81% | percent inhibition of PKK at 0.19 μM [2, 15]: 0% | percent inhibition of PKK at 0.56 μM [2, 15]: 15% | percent inhibition of PKK at 1.67 μM [2, 15]: 24% | percent inhibition of PKK at 5.00 μM [2, 15]: 44% | IC50 [2, 16]: > 5000 nM
